Reference: PubChem BioAssay (NCI)
Values joined by “and” are separate entries in the source; they are usually repeats but may differ in a detail not shown here. Equal values may be shown once.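 96-well plates; 48 h exposure; 5 concentrations. Endpoints by linear interpolation between flanking doses. Not reached: highest tested concentration assigned. GI50 is the concentration that inhibits growth by half. TGI marks complete inhibition of growth.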

Legend:
Assay in all cases: DTP human tumour cell line panel, 48 h
MOLT-4 leukemia = test system: MOLT-4 leukemia
IGROV1 ovarian = test system: IGROV1 ovarian
LOX IMVI melanoma = test system: LOX IMVI melanoma
MDA-MB-231 breast = test system: MDA-MB-231 breast
SN12C renal = test system: SN12C renal
MCF7 breast = test system: MCF7 breast
NCI/ADR-RES ovarian = test system: NCI/ADR-RES ovarian
MDA-MB-435 = test system: MDA-MB-435
RXF 393 renal = test system: RXF 393 renal
SF-539 CNS = test system: SF-539 CNS

Structure (SMILES)	GI50 (MOLT-4 leukemia)	TGI (MOLT-4 leukemia)	GI50 (IGROV1 ovarian)	GI50 (LOX IMVI melanoma)	TGI (LOX IMVI melanoma)	GI50 (MDA-MB-231 breast)	TGI (MDA-MB-231 breast)	GI50 (SN12C renal)	TGI (SN12C renal)	GI50 (MCF7 breast)	TGI (MCF7 breast)	GI50 (NCI/ADR-RES ovarian)	TGI (NCI/ADR-RES ovarian)	GI50 (MDA-MB-435)	TGI (MDA-MB-435)	GI50 (RXF 393 renal)	TGI (RXF 393 renal)	GI50 (SF-539 CNS)	TGI (SF-539 CNS)	TGI (IGROV1 ovarian)
C=CCN(/C=C1\C(=O)O[C@H](COC)[C@@]2(C)C1=C(O)C(=O)C1=C2[C@H](OC(C)=O)C[C@]2(C)C(=O)CC[C@@H]12)CC=C	1.58 µM and 0.813 µM	20 µM and 17.1 µM	0.145 µM and 0.206 µM	0.547 µM and 1.89 µM	20 µM and 21.4 µM	13.2 µM and 3.32 µM	20 µM and > 100 µM	1.99 µM and 1.07 µM	20 µM and > 100 µM	0.186 µM and 0.257 µM	5.95 µM and 22.8 µM	5.76 µM and 2.34 µM	20 µM and > 100 µM	1.29 µM and 3.63 µM	13.5 µM and 46.9 µM	0.00922 µM and 0.0149 µM	0.261 µM and 0.196 µM	3.6 µM and 0.524 µM	20 µM and 6.41 µM	
COC(=O)[C@H](CC(C)C)NC(=O)NC(=O)NC(=O)CI	2.1 µM	5.12 µM	2.06 µM	1.64 µM	3.24 µM	10.2 µM	25.8 µM	3.61 µM	16.2 µM	1.8 µM	4.33 µM	25.5 µM	74.1 µM	6.1 µM	19.2 µM	2.46 µM	6.54 µM	3.16 µM	12.2 µM	4.64 µM
CCc1c(Cl)nc(Cl)nc1Cl		9.5 µM			1.54 µM		2.81 µM		1.39 µM		0.258 µM		11.3 µM		12.1 µM		0.968 µM		1.77 µM	4.44 µM
COc1cc([C@@H]2c3cc4c(cc3[C@H](O)[C@H]3COC(=O)[C@H]23)OCO4)cc(OC)c1OC	< 0.01 µM		< 0.005 µM	< 0.01 µM	> 100 µM and 50 µM	< 0.01 µM		< 0.005 µM	> 100 µM and 35 µM	< 0.01 µM	> 100 µM and 10.3 µM		< 0.005 µM	< 0.01 µM	< 0.005 µM	< 0.01 µM		< 0.01 µM	< 0.005 µM	
Clc1ccc(-c2nn3ncccc3c2-c2ccnc(Nc3ccccc3)n2)cc1	5.77 µM	> 25 µM	2.29 µM	9.23 µM	> 25 µM	13.4 µM	> 25 µM	8.29 µM	> 25 µM	7.17 µM	> 25 µM	8.01 µM	> 25 µM	10.1 µM	> 25 µM	6.56 µM	> 25 µM	> 14.2 µM	> 25 µM	> 22 µM
CC1=C(/C=C/C(C)=C/C=C/C(C)=C/C(=O)Nc2ccc(O)cc2)C(C)(C)CCC1	0.391 µM	2.11 µM and 5.53 µM	1.19 µM	0.588 µM	2.26 µM and 4.76 µM	1.79 µM	10.1 µM and 6.06 µM	1.61 µM	5.23 µM and 5.63 µM	1.4 µM	9.59 µM and 12.9 µM	2.29 µM	7.07 µM and 18.4 µM	1.9 µM	5.99 µM and 18.7 µM		6.5 µM and 5.43 µM	0.355 µM	1.73 µM and 3.39 µM	3.68 µM and 4.91 µM
CN1c2ccccc2S(=O)(=O)n2c(COc3ccc(Cl)cc3)nnc21		> 100 µM			> 100 µM		> 100 µM		> 100 µM		> 100 µM		> 100 µM		> 100 µM		> 100 µM		> 100 µM	> 100 µM
C=C1C(=O)O[C@@H]2C[C@@H]1CC[C@@]1(C)O[C@@H]1CC[C@@]1(C)O[C@@H]1CC[C@@]2(C)O	10.1 µM	32.3 µM	21.2 µM	15.7 µM	31 µM	13.7 µM	31.6 µM	16.1 µM	40.1 µM	55.2 µM	> 100 µM	32.4 µM	78.3 µM	17.4 µM	68.4 µM	42.8 µM	> 100 µM	26.7 µM	75.9 µM	> 100 µM
O=C(O)CCCCn1cnc2c(=S)nc[nH]c21		> 100 µM			> 100 µM		> 100 µM		> 100 µM		> 100 µM		> 100 µM		> 100 µM		> 100 µM		> 100 µM	> 100 µM
N#CN1CCC[C@H]1C(=O)N1CCc2c(-c3[nH]nc4ncccc34)cccc21	< 0.01 µM	11 µM	0.0862 µM	< 0.01 µM	10.6 µM	< 0.01 µM	0.177 µM	< 0.01 µM	48.2 µM	< 0.01 µM	11 µM	0.0103 µM	> 31.7 µM	< 0.01 µM	< 0.01 µM	< 0.01 µM	0.145 µM	< 0.01 µM	< 0.01 µM	12.6 µM
C=C1CCC2C3(C)COC(c4ccc(SC)cc4)OC3CCC2(C)C1C/C=C1/C(=O)OCC1O (configuration not stated)	3.43 µM	20.9 µM	4.3 µM	1.44 µM	3.01 µM	5.52 µM	16.5 µM	3.94 µM	18.6 µM	3.04 µM	11.7 µM	2.78 µM	8.18 µM	3.69 µM	16.4 µM	4.51 µM	15.6 µM	4.75 µM	9.38 µM	15.9 µM
O=C1/C(=C/c2ccccc2)CCC/C1=C\c1ccccc1	15.1 µM and 11.1 µM	36.5 µM and 71.1 µM and 70.2 µM	8.37 µM and 14.6 µM	3.83 µM and 1.52 µM	8.65 µM and 5.92 µM and 3.64 µM	18.5 µM	11.6 µM and 68.1 µM	7.33 µM	12.6 µM and 32.8 µM and 34.9 µM	3.46 µM	12.4 µM and 21 µM	17.5 µM	17.1 µM and 95.5 µM	2.71 µM	11 µM and 14.1 µM	7.73 µM and 4.27 µM	13.4 µM and 32.3 µM and 17.8 µM	6.9 µM and 22.3 µM	12.2 µM and 32.7 µM and 53.4 µM	14.1 µM and 29.4 µM and > 100 µM
COc1cc(C2CC(c3cc(C)ccc3C)=NN2c2ccc(S(=O)(=O)NC(=O)NCc3ccccc3)cc2)cc(OC)c1OC (configuration not stated)	3.24 µM	25.2 µM	3.95 µM	3.79 µM	> 100 µM	2.96 µM	13.3 µM	3.15 µM	18.1 µM	2.58 µM	9.56 µM	4.18 µM	31.7 µM	2.27 µM	5.25 µM	2.9 µM	8.17 µM	2.02 µM	4.69 µM	19.8 µM
O=C(c1cccs1)c1c(C(F)(F)F)n([O-])c2ccc(F)cc2[n+]1=O	0.3 µM	1.02 µM	0.279 µM	0.971 µM	2.67 µM	1.5 µM	3.1 µM	1.58 µM	4.33 µM	0.454 µM	3.12 µM	2.36 µM	6.33 µM	1.31 µM	2.87 µM	1.2 µM	2.74 µM	1.67 µM	3.47 µM	1.49 µM
CCOC(=O)c1c(C)n2c(=O)cc(C)c3c(OC(C)=O)c(OC(C)=O)cc1c32	3.13 µM	> 25.5 µM	4.78 µM	4.52 µM	22.9 µM	4.34 µM	34.4 µM	4.97 µM	28.2 µM	3.27 µM	14 µM	2.69 µM	> 27 µM	5.76 µM	> 53 µM	3.43 µM	15.8 µM	4.24 µM	21.1 µM	41.9 µM
COC(=O)c1ccc([N+](=O)[O-])c(O)c1		> 100 µM			> 100 µM		> 100 µM		> 100 µM		> 100 µM		> 100 µM		> 100 µM		> 100 µM		> 100 µM	> 100 µM
CC1OC(OC2CC(O)C3(CO)C4C(O)CC5(C)C(C6=CC(=O)OC6)CCC5(O)C4CCC3(O)C2)C(O)C(O)C1O (configuration not stated)	< 0.0123 µM	1.78 µM	< 0.0161 µM	< 0.0196 µM	0.0457 µM	0.129 µM	0.641 µM		0.0228 µM	< 0.0163 µM	0.29 µM	< 0.0122 µM	< 0.0152 µM	0.0222 µM	0.0785 µM	< 0.0129 µM	< 0.0202 µM	< 0.0132 µM	< 0.0182 µM	0.384 µM
COc1ccc(-c2cc(/C=C3\C(=O)Nc4ccc(OC)cc43)[nH]n2)cc1	> 100 µM	> 100 µM	> 100 µM	14 µM	> 100 µM	> 100 µM	> 100 µM	> 100 µM	> 100 µM	0.732 µM	> 100 µM	31.8 µM	> 100 µM	0.317 µM	26.1 µM	55 µM	> 100 µM	6.67 µM	> 100 µM	> 100 µM
